According to patent US20030186281A1, “Modified tetracycline repressor protein compositions and methods of use” (priority 2001, published 2003):

Test system: tet operator sequence
Assay: β-galactosidase activity of a tetracycline-regulated promoter in transformed E. coli with revTetR, in the presence and absence of anhydrotetracycline (atc)
Format: cell-based, Escherichia coli
Conditions: FIG. 2
Description: The relative activity of revTetR repressors was determined at 28° C. and 37° C. for each clone by measuring β-galactosidase activity of a tetracycline-regulated promoter in transformed Escherichia coli in the presence and absence of the tetracycline analog, anhydrotetracycline (atc). The relative β-galactosidase activity was measured in standard Miller units and is presented as the percent of maximal expression as measured in the absence of Tet repressor. […] With respect to each mutant, as well as the wild-type controls, FIG. 2 provides two horizontal bars; the upper horizontal bar represents the level of β-galactosidase activity in the absence of anhydrotetracycline (−atc) while the lower horizontal bar represents the level of β-galactosidase activity in the presence of anhydrotetracycline (+atc). […]
The ability of each revTetR clone to bind to its cognate tet operator sequence and regulate transcription in a prokaryotic organism, Escherichia coli, in the presence and absence of a tetracycline analog (anhydrotetracycline, atc) was determined (Table 3, FIG. 2). […]

Cc1c2c(c(O)c3c(O)cccc13)C(=O)[C@]1(O)C(=O)C(C(N)=O)=C(O)[C@@H](N(C)C)[C@@H]1C2 [anhydrotetracycline, reference compound]
repression of transcription in prokaryotic organisms by the tetracycline analog (with revTetR): about 50 fold
